Assay results from US20220041616A1, “SPIRO COMPOUND AND MEDICAL USES THEREOF” (The National Institutes of Pharmaceutical R&D Co., Ltd., priority 2018, published 2022).

tested on: HepG2 cells; assay: In vitro inhibition of fatty acid synthesis in HepG2 cells ([14C]-acetate incorporation); assay type: cell-based, human; details: 1 h compound, then 5 h [2-14C]-acetic acid
Procedure: Human liver tumor cells (HepG2 cells) with strong fatty acid synthesis ability were selected. The sample to be tested was added and incubated for 1 hour. Isotope-labeled [^14C]-sodium acetate was added to the cell culture medium and incubated for 5 hours. Then the cells were lysed, and the fatty acid components in the cell were extracted and separated. The relative content of the isotope integrated into the fatty acid was analyzed, so as to detect the inhibitory effect of the compound on fatty acid synthesis in HepG2 cells at different concentrations, and the IC50 value was calculated.
a. HepG2 cells were purchased from the American type culture collection (ATCC) resource bank. Cells were cultured in DMEM (GIBCO) containing 10% fetal bovine serum (GIBCO), penicillin (100 units/mL) and streptomycin (100 μg/mL) (GIBCO), and then incubated in a 37° C. incubator containing 5% carbon dioxide, and passaged once every 2 to 3 days.
b. On the first day, HepG2 cells were inoculated in a 24-well cell culture plate at 2×10^5 per well, and were incubated in a 37° C. incubator containing 5% carbon dioxide.
c. On the fourth day, the medium was changed to that containing the compound. The initial concentration of the compound was 3 μM or 0.3 μM, 3-fold dilution, 8 concentration gradients, and the final concentration of DMSO was 0.5% (v/v). The plate was incubated in a 37° C. incubator containing 5% carbon dioxide for 1 hour. GS-0976 was positive compound control; the reaction system with no compound but DMSO at a final concentration of 0.5% was negative control.
d. 1 μCi [2-^14C]-acetic acid was added to each well, and incubated for 5 hours in a 37° C. incubator containing 5% carbon dioxide.
e. The medium was first transferred to 15 mL centrifuge tubes. 0.5 mL of 0.1 M NaOH was added to each well of cells, and the lysed cell suspension was added to the corresponding 15 mL centrifuge tubes. 1 mL of ethanol and 0.17 mL of 50% KOH were added to each tube, and incubated in a water bath at 90° C. for 1 hour.
f. The sample were taken out and cooled to room temperature, then 5 mL petroleum ether was added to each tube, inverted several times, and centrifuged at 1000 rpm for 5 min. The upper organic phase was discarded and the aqueous phase was kept for fatty acid extraction. 1 mL of concentrated hydrochloric acid (its pH was ensured to be below 1) was added to each tube.
g. 5 mL petroleum ether was added to each tube, invert several times and centrifuged at 1000 rpm for 5 min. 4 mL petroleum ether layer was transferred to a new glass tube (18×180 mm). This step was repeated once.
h. The extracts were collected and placed in a water bath at 64° C. to evaporate for 30 min. Fatty acids were dissolved with 400 μL chloroform/n-hexane (1:1).
i. 50 μL sample were placed in iso-plate (Perkinelmer), 200 μL ULTIMA GOLD (Perkinelmer) was added to each well and incubated for 10 min at room temperature.
j. MicroBeta (Perkinelmer) was used to record the CPM scintillation signal.
The average value of the positive and negative control well and the standard deviation were calculated. IC50 was fitted by using XLFit 5.3.1.3 (2006-2011 ID Business Solutions Limited) with 4-Parameter Logistic Model or Sigmoidal Dose-Response Model:
Y=(Bottom+((Top−Bottom)/(1+((Log IC50/X)^Hillslope)))),
wherein X is the logarithm of the compound concentration, Y is CPM (count per minute); Top and Bottom are the Y values at the highest and lowest plateau of the curve; Hillslope is the Hill constant.

In the case of COc1ccccc1C(CN1C(=O)C2(CCC(C(=O)O)C2)C(=O)c2c1sc(-c1ncco1)c2C)OC1CCOCC1 (mixture of isomers) [Compound 5y, 7′-(2-(2-methoxyphenyl)-2-((tetrahydro-2H-pyran-4-yl)oxy)ethyl)-3′-methyl-2′-(oxazol-2-yl)-4′,6′-dioxo-6′,7′-dihydro-4′H-spiro[cyclopentane-1,5′-thieno[2,3-b]pyridine]-3-carboxylic Acid], the IC50 is reported as < 50 nM.

same assay, conditions: Homo sapiens, HepG2, 1 h compound, then 5 h [2-14C]-acetic acid

Compared with COc1ccccc1C(CN1C(=O)C2(CCC(C(=O)O)C2)C(=O)c2c1sc(-c1ncco1)c2C)OC1CCOCC1 (mixture of isomers) [Compound 5x, 7′-(2-(2-methoxyphenyl)-2-((tetrahydro-2H-pyran-4-yl)oxy)ethyl)-3′-methyl-2′-(oxazol-2-yl)-4′,6′-dioxo-6′,7′-dihydro-4′H-spiro[cyclopentane-1,5′-thieno[2,3-b]pyridine]-3-carboxylic Acid], COc1ccccc1C(CN1C(=O)C2(CC(C(=O)O)C2)C(=O)c2c1sc(-c1ncco1)c2C)OC1CCOCC1 (mixture of isomers) [Compound 8, 7′-(2-(2-methoxyphenyl)-2-((tetrahydro-2H-pyran-4-yl)oxy)ethyl)-3′-methyl-2′-(oxazol-2-yl)-4′,6′-dioxo-6′,7′-dihydro-4′H-spiro[cyclobutane-1,5′-thieno[2,3-b]pyridine]-3-carboxylic Acid] is lower in IC50: 50 to 500 nM for the first, < 50 nM for the second. The second is the more potent here.

COc1ccccc1C(CN1C(=O)C2(CCC(C(=O)O)C2)C(=O)c2c1sc(-c1ncco1)c2C)OC1CCOCC1 (single isomer, unassigned) [Compound 5b, 7′-(2-(2-methoxyphenyl)-2-((tetrahydro-2H-pyran-4-yl)oxy)ethyl)-3′-methyl-2′-(oxazol-2-yl)-4′,6′-dioxo-6′,7′-dihydro-4′H-spiro[cyclopentane-1,5′-thieno[2,3-b]pyridine]-3-carboxylic Acid] and COc1ccccc1C(CN1C(=O)C2(CC(C(=O)O)C2)C(=O)c2c1sc(-c1ncco1)c2C)OC1CCOCC1 (single isomer, unassigned) [Compound 8d, 7′-(2-(2-methoxyphenyl)-2-((tetrahydro-2H-pyran-4-yl)oxy)ethyl)-3′-methyl-2′-(oxazol-2-yl)-4′,6′-dioxo-6′,7′-dihydro-4′H-spiro[cyclobutane-1,5′-thieno[2,3-b]pyridine]-3-carboxylic Acid] cannot be ordered by IC50: < 50 nM for the first, < 50 nM for the second.

With COc1ccccc1[C@H](CN1c2sc(-c3ncco3)c(C)c2C(=O)[C@]2(C[C@H](C(=O)O)C2)C1=O)OC1CCOCC1 [Compound 8c, 7′-(2-(2-methoxyphenyl)-2-((tetrahydro-2H-pyran-4-yl)oxy)ethyl)-3′-methyl-2′-(oxazol-2-yl)-4′,6′-dioxo-6′,7′-dihydro-4′H-spiro[cyclobutane-1,5′-thieno[2,3-b]pyridine]-3-carboxylic Acid] the IC50 was < 50 nM.
